“And” between values parts separate entries of the source, which are not always exact repeats. Equal entries are not always repeated. Where two headings read alike, the source gives them in different places. Marks after values point to notes of the source that are not given here.
Tests used:
Bcl-2 = conditions: tumor tissue, ratio to β-actin, n=3
Caspase 8 = conditions: 2.0 μg, HepG2 cells
Method: (§1) 2.1.1 HepG2 cells were digested by trypsin in the cell culture medium. The resulting mixture (6000 was centrifuged for 5 minutes at 4° C. to collect the cells. The supernatant was carefully aspirated and discarded. The remains were washed once with PBS, added to lysate (100 μl/2×10^6 cells); and then, after resuspending the precipitation, ice cracked for 15 minutes.
(§2) 2.1.2 The resulting mixture (16000 g) was centrifuged at 4° C. for 15 minutes.
(§3) 2.1.3 The supernatant was transferred into a centrifugal tube that was pre-cooled by ice bath.
(§4) 2.2.3 Incubating at 37° C. for 120 minutes, detecting Caspase 3 with A405;
(§5) 2.2.4 Adding Ac-IETD-PNA (2 mM) and Ac-LEHD-PNA (2 mM), respectively, for detecting Caspase 8, 9

Caspase 9 = conditions: 2.0 μg, HepG2 cells
Method: as §1, §2, §3, §4, §5

Caspase 3 = conditions: 2.0 μg, HepG2 cells, A405
Method: as §1, §2, §3
2.2.1 Took out pNA and a suitable amount of Ac-DEVD-PNA (2 mM), put them on the ice bath for later use;
as §4

P53 = conditions: tumor tissue, ratio to β-actin, n=3
Method: (§6) 3. Detecting the activity of tumor cells VEGF, P53, P21, Bcl-2 (taking β-Actin as an internal reference)
(§7) Using Protein Electrophoresis (Western Blot) Method
(§8) A bean sized tumor tissue dissected previously was shredded and put into a pre-cooled tissue grinder. 400 μl tissue lysis solution was added. After 10 minutes carefully grinding, the mixture was transferred into a 1.5 ml centrifugal tube, and then, after intensely vortexing the tube for 15 seconds, the mixture was placed on ice for 10 minutes and repeatedly oscillated. After centrifuging 20 minutes (12000 rpm), the supernatant was collected, transferred into a pre-cooled Eppendorf tube, and then separately charged and frozen stored at −80° C. for detecting the activity level of various antibodies.
(§9) 3.4.3 Reaction with the first antibody: The first antibody was diluted by TBST solution at a ratio of 1:200, and then reacted with the PVDF film at 4° C. for a night. In the next day, after balanced at room temperature for one hour, the reaction mixture was washed with TBST for 3 times.

P21 = conditions: tumor tissue, ratio to β-actin, n=3
Method: as §6, §7, §8, §9

VEGF = conditions: tumor tissue, ratio to β-actin, n=3
Method: as §6, §7, §8, §9

[1] = system: human immortalized fibroblast cell NIH3T3
Method: (§10) The human hepatoma cells HepG2, human lung cancer cells A549 and NIH3T3 cells were recovered, and subcultured in culture flasks. Once the cells grew to the logarithmic phase, the experiment can be started. The cells were digested by high-pressure filtered trypsin to prepare a cell-containing suspension, dyed for 3 minutes with 0.4% trypan blue, and then counted with the blood-cell counter (living cells were not colored, while dead cells were stained blue).
(§11) The three types of cells in logarithmic phase were seeded in 96-well plates with a density of 1×10^4/ml (200 μL/well), and then cultivated for 24 hours at 37° C. in 5% CO2 cultivable box. The culture media was aspirated and discarded. […] After cultivating for 24 hours and 48 hours, 100 ul supernatant was carefully aspirated and discarded, respectively. MTS (20 μl/well) was added and mixed evenly. The mixture was cultivated for 1 hour at 37° C. in 5% CO2 cultivable box. The absorbency at 492 nm was determined by quantitative Enzyme-linked immunosorbent assay (ELISA). The experiment was repeated for three times. The growth inhibition rate was calculated as follows. Growth Inhibition rate(%)=[(mean OD value of control group−mean OD value of treatment group)/mean OD value of control group]×100%

[2] = system: human lung cancer cell A549
Method: as §10, §11

[3] = system: human hepatoma cell HepG2
Method: as §10, §11

CC(C)CCC[C@@H](C)[C@H]1CC[C@@H]2[C@]1(C)CC[C@H]1[C@]23C=C[C@]2(CC(=O)CC[C@]12C)OO3 [CL168-6, 5α,8α-cyclicobioxygen-6-cholesten-3-one]
relative expression level of bcl-2 (Bcl-2): 0.75±0.04 | OD value of Caspase8 (Caspase 8; 24 h): 0.413 | OD value of Caspase8 (Caspase 8; 48 h): 0.408 | OD value of Caspase9 (Caspase 9; 24 h): 0.156 | OD value of Caspase9 (Caspase 9; 48 h): 0.146 | OD value of Caspase3 (Caspase 3; 24 h): 0.190 | OD value of Caspase3 (Caspase 3; 48 h): 0.185 | relative expression level of P53 (P53): 0.74±0.03 | relative expression level of P21 (P21): 0.79±0.07 | relative expression level of VEGF (VEGF): 0.46±0.08 | 24 h Inhibition rate (%) NIH3T3 ([1]; 2.5 μg/ml): 3.87% | 48 h Inhibition rate (%) NIH3T3 ([1]; 2.5 μg/ml): 0.75% | 24 h Inhibition rate (%) NIH3T3 ([1]; 5.0 μg/ml): 5.69% | 48 h Inhibition rate (%) NIH3T3 ([1]; 5.0 μg/ml): 1.97% | 24 h Inhibition rate (%) NIH3T3 ([1]; 10.0 μg/ml): 8.45% | 48 h Inhibition rate (%) NIH3T3 ([1]; 10.0 μg/ml): 5.37% | 24 h Inhibition rate (%) A549 ([2]; 2.5 μg/ml): 48.69% | 48 h Inhibition rate (%) A549 ([2]; 2.5 μg/ml): 51.91% | 24 h Inhibition rate (%) A549 ([2]; 5.0 μg/ml): 55.78* % | 48 h Inhibition rate (%) A549 ([2]; 5.0 μg/ml): 59.75* % | 24 h Inhibition rate (%) A549 ([2]; 10.0 μg/ml): 62.40% | 48 h Inhibition rate (%) A549 ([2]; 10.0 μg/ml): 69.67% and 69.37* % | 24 h Inhibition rate (%) HepG2 ([3]; 2.5 μg/ml): 52.85% | 48 h Inhibition rate (%) HepG2 ([3]; 2.5 μg/ml): 59.83% | 24 h Inhibition rate (%) HepG2 ([3]; 5.0 μg/ml): 58.51* % | 48 h Inhibition rate (%) HepG2 ([3]; 5.0 μg/ml): 69.08* % | 24 h Inhibition rate (%) HepG2 ([3]; 10.0 μg/ml): 64.39% | 48 h Inhibition rate (%) HepG2 ([3]; 10.0 μg/ml): 73.67%
